# Columns and labels:
# [1] = target: 5'-AMP-activated protein kinase catalytic subunit alpha-2 (Homo sapiens) (UniProt P54646); assay: Inhibition of recombinant full length human AMPKalpha2 assessed as residual activity at 10 uM using AMARAASAAALAR as substrate incubated for 40 mins in presence of [gamma-33ATP] by scintillation counting based radiometry assay relative to control
# [2] = target: Casein kinase II subunit alpha (Homo sapiens) (UniProt P68400); assay: Inhibition of recombinant full length human CK2alpha1 assessed as residual activity at 10 uM using RRRDDDSDDD as substrate incubated 40 mins in presence of [gamma-33ATP] by scintillation counting based radiometry assay relative to control
# Homo sapiens = species on record: Homo sapiens; assay: Inhibition of recombinant human Ros V2262A mutant (1883 to end residues) assessed as residual activity at 10 uM using KKKSPGEYVNIEFG as substrate incubated for 40 mins in presence of [gamma33P]ATP by scintillation counting based radiometry assay relative to control
# [3] = target: MAP/microtubule affinity-regulating kinase 3 (Homo sapiens) (UniProt P27448); assay: Inhibition of recombinant full length human MARK3 assessed as residual activity at 10 uM using KKKVSRSGLYRSPSMPENLNRPR as substrate incubated for 40 mins in presence of [gamma-33ATP by scintillation counting based radiometry assay relative to control
# Mus musculus = species on record: Mus musculus; assay: Inhibition of recombinant full-length mouse PI3K p110/p85 E542K mutant assessed as residual activity at 10 uM using phosphatidylinositol-4, 5-bisphosphate as substrate incubated for 40 mins in presence of [gamma33P]ATP by scintillation counting based radiometry assay relative to control
# [4] = target: Tyrosine-protein kinase ITK/TSK (Homo sapiens) (UniProt Q08881); assay: Inhibition of human Itk (352 to 617 residues) assessed as residual activity at 10 uM using myelin basic protein as substrate after 40 mins by [gamma-33ATP] radiometric assay relative to control
# [5] = target: Tyrosine-protein kinase Srms (Homo sapiens) (UniProt Q9H3Y6); assay: Inhibition of recombinant human SRMS assessed as residual activity at 10 uM presence of [gamma33P]ATP by scintillation counting based radiometry assay relative to control
# [6] = target: LIM domain kinase 2 (Homo sapiens) (UniProt P53671); assay: Inhibition of recombinant human LIMK2 assessed as residual activity after 10 uM by scintillation counting based radiometry assay relative to control
# [7] = target: Cyclin-dependent kinase-like 2 (Homo sapiens) (UniProt Q92772); assay: Inhibition of recombinant full length human CDKL2 assessed as residual activity at 10 uM in presence of [gamma-33ATP] by scintillation counting based radiometry assay relative to control
# [8] = target: Serine/threonine-protein kinase DCLK2 (Homo sapiens) (UniProt Q8N568); assay: Inhibition of recombinant human DCAMKL2 (376 to end residues) assessed as residual activity at 10 uM using KKLNRTLSFAEPG as substrate at 40 mins in presence of [gamma-33ATP] by scintillation counting based radiometry assay relative to control
# [9] = target: Dual specificity tyrosine-phosphorylation-regulated kinase 2 (Homo sapiens) (UniProt Q92630); assay: Inhibition of recombinant human DYRK2 assessed as residual activity at 10 uM using casein as substrate at 40 mins in presence of [gamma-33ATP] by scintillation counting based radiometry assay relative to control
# [10] = system: Phosphorylase b kinase gamma catalytic chain, liver/testis isoform (Homo sapiens), P15735 [F290L]; assay: Inhibition of recombinant human PhKgamma2 F290L mutant (1 to 301 residues) assessed as residual activity at 10 uM using KKLNRTLSFAEPG as substrate incubated for 40 mins in presence of [gamma33P]ATP by scintillation counting based radiometry assay relative to control
# [11] = target: Ribosomal protein S6 kinase alpha-1 (Homo sapiens) (UniProt Q15418); assay: Inhibition of recombinant full length human Rsk1 assessed as residual activity at 10 uM using KKKNRTLSVA as substrate incubated for 40 mins in presence of [gamma33P]ATP by scintillation counting based radiometry assay relative to control
# [12] = system: Ribosomal protein S6 kinase beta-1 (Homo sapiens), P23443 [T412E]; assay: Inhibition of recombinant human p70S6K T412E mutant (1 to 421 residues) assessed as residual activity at 10 uM using KKRNRTLTV as substrate measured after 40 mins in presence of [gamma33P]ATP by scintillation counting based radiometry assay relative to control
# [13] = target: Serine/threonine-protein kinase 32B (Homo sapiens) (UniProt Q9NY57); assay: Inhibition of recombinant human full length STK32B assessed as residual activity at 10 uM using casein as substrate incubated for 40 mins in presence of [gamma33P]ATP by scintillation counting based radiometry assay relative to control
# [14] = target: Leucine-rich repeat serine/threonine-protein kinase 2 (Homo sapiens) (UniProt Q5S007); assay: Inhibition of recombinant human LRRK2 (970 to end residues) assessed as residual activity at 10 uM using RLGRDKYKTLRQI as substrate after 40 mins in presence of [gamma-33ATP] by scintillation counting based radiometry assay relative to control
# [15] = target: Activin receptor type-1 (Homo sapiens) (UniProt Q04771); assay: Inhibition of human ALK2 (147 to end residues) assessed as residual activity at 10 uM using casein as substrate incubated for 40 mins in presence of [gamma-33ATP] by scintillation counting based radiometry assay relative to control
# [16] = target: Ephrin type-B receptor 3 (Homo sapiens) (UniProt P54753); assay: Inhibition of recombinant human EphB3 (599 to 920 residues) assessed as residual activity at 10 uM using poly(Glu, Tyr) 4:1 as substrate at 40 mins in presence of [gamma-33ATP] by scintillation counting based radiometry assay relative to control
# [17] = target: Tyrosine-protein kinase JAK2 (Homo sapiens) (UniProt O60674); assay: Inhibition of human JAK2 (808 to end residues) assessed as residual activity at 10 uM using KTFCGTPEYLAPEVRREPRILSEEEQEMFRDFDYIADWC as substrate after 40 mins by [gamma-33ATP] radiometric assay relative to control
# [18] = target: [Pyruvate dehydrogenase (acetyl-transferring)] kinase isozyme 2, mitochondrial (Homo sapiens) (UniProt Q15119); assay: Inhibition of human PDHK2 assessed as residual activity at 10 uM by scintillation counting based radiometry assay relative to control
# [19] = target: Dual specificity mitogen-activated protein kinase kinase 6 (Homo sapiens) (UniProt P52564); assay: Inhibition of recombinant human MKK6 assessed as residual activity at 10 uM by scintillation counting based radiometry assay relative to control
# [20] = target: Mitogen-activated protein kinase 9 (Homo sapiens) (UniProt P45984); assay: Inhibition of human JNK2alpha2 assessed as residual activity at 10 uM using ATF2 as substrate after 40 mins by [gamma-33ATP] radiometric assay relative to control
# Sequence of Mitogen-activated protein kinase 9 (Homo sapiens) (P45984 whole entry, looked up): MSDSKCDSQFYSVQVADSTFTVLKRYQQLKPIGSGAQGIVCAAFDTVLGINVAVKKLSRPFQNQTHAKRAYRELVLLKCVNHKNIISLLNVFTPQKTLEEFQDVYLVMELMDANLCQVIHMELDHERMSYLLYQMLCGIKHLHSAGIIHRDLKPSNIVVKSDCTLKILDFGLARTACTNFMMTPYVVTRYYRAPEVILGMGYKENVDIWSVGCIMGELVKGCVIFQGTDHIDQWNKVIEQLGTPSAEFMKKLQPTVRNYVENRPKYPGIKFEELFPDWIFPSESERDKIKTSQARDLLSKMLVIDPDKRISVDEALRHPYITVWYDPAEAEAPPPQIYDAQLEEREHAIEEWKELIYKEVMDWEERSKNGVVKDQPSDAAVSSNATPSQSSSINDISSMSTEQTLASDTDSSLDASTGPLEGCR
# Sequence of 5'-AMP-activated protein kinase catalytic subunit alpha-2 (Homo sapiens) (P54646 whole entry, looked up): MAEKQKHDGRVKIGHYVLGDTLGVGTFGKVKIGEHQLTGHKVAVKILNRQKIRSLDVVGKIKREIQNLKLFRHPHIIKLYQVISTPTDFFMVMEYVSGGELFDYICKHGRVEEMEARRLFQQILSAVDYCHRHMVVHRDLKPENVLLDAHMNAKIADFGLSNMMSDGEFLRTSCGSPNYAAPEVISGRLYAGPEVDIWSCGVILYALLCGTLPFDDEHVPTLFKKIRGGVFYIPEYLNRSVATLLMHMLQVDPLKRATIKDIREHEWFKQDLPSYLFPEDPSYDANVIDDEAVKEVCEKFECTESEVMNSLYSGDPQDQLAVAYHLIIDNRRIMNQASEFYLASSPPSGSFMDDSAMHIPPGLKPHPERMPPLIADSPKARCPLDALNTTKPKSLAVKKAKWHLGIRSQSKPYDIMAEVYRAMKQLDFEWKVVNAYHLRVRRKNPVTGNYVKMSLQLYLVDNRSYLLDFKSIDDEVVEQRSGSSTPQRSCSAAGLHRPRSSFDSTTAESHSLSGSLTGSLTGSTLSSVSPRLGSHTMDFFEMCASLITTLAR
# Sequence of Phosphorylase b kinase gamma catalytic chain, liver/testis isoform (Homo sapiens), P15735 [F290L] (P15735 whole entry F290L, the tested form may be a part, canonical isoform): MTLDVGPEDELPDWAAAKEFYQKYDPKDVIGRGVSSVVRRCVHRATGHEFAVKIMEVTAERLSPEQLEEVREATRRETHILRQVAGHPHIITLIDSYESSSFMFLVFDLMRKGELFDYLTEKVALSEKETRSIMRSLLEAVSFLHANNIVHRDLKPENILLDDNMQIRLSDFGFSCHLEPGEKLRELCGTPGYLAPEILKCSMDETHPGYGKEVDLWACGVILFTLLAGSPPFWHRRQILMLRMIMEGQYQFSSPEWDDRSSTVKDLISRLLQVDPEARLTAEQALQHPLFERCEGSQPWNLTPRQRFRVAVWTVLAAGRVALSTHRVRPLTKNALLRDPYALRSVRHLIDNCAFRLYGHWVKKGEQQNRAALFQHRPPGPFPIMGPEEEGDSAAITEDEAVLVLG
# Sequence of Ribosomal protein S6 kinase alpha-1 (Homo sapiens) (Q15418 whole entry, the tested form may be a part): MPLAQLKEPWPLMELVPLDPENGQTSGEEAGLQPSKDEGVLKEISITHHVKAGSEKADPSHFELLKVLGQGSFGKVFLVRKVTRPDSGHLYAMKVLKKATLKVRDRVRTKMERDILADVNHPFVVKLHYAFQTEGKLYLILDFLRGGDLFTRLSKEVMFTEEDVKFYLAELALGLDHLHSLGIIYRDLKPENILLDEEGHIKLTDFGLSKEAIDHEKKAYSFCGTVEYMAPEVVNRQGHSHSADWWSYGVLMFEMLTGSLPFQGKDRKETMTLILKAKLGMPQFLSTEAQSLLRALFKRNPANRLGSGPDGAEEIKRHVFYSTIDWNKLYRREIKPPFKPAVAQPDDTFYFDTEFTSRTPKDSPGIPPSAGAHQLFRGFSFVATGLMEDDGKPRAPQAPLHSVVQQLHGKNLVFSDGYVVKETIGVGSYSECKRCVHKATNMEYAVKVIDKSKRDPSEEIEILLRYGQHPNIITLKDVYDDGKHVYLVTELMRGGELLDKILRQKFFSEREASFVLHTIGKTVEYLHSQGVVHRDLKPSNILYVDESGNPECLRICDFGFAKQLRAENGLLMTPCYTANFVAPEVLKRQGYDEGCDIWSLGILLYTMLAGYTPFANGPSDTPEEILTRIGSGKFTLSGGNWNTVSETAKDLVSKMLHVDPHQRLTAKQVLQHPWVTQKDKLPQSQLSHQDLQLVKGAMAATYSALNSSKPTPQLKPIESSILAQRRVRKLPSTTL
# Sequence of Tyrosine-protein kinase ITK/TSK (Homo sapiens) (Q08881 whole entry, the tested form may be a part): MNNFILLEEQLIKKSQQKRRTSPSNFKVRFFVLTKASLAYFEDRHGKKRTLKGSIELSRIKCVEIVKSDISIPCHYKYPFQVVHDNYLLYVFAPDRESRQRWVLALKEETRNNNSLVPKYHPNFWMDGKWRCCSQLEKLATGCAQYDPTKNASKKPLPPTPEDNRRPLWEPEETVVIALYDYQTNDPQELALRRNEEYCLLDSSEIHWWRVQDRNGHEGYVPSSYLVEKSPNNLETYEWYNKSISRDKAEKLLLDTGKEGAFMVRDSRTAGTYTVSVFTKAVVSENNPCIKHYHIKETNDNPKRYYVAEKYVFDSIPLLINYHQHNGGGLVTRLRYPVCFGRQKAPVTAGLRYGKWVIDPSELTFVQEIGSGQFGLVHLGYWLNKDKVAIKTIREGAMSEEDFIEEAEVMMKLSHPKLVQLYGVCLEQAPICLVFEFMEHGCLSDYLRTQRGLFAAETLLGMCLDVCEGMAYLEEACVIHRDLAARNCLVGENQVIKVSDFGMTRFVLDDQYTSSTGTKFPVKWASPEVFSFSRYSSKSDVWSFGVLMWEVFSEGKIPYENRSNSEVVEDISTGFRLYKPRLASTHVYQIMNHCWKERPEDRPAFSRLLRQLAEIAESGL
# Sequence of Serine/threonine-protein kinase 32B (Homo sapiens) (Q9NY57 whole entry): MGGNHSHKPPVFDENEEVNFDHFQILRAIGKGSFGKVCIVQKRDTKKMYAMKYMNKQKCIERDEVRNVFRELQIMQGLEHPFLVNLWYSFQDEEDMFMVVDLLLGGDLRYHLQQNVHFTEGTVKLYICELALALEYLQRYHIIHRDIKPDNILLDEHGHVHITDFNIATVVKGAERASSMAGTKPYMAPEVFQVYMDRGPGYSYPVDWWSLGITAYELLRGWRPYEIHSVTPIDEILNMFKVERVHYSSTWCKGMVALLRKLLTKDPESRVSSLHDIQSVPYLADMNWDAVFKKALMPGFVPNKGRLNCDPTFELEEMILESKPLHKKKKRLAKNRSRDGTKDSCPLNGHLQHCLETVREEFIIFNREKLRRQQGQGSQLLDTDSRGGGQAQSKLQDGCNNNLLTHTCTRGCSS
# Sequence of Dual specificity tyrosine-phosphorylation-regulated kinase 2 (Homo sapiens) (Q92630 whole entry, the tested form may be a part, canonical isoform): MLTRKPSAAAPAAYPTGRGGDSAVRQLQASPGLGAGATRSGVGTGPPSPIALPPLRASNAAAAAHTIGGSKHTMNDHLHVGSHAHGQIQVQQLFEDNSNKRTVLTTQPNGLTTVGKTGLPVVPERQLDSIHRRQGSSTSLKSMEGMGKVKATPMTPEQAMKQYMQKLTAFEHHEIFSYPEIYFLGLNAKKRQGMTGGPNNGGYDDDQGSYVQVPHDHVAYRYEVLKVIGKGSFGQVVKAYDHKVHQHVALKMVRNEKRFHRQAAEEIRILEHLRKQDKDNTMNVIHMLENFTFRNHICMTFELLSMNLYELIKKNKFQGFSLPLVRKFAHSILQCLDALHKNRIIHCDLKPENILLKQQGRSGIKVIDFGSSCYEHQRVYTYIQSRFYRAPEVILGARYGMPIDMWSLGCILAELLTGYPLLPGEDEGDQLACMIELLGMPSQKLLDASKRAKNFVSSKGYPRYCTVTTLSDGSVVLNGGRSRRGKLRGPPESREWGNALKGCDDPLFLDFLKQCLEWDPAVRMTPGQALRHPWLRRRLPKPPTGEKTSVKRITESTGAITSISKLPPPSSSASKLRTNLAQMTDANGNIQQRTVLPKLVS
# Sequence of Serine/threonine-protein kinase DCLK2 (Homo sapiens) (Q8N568 whole entry): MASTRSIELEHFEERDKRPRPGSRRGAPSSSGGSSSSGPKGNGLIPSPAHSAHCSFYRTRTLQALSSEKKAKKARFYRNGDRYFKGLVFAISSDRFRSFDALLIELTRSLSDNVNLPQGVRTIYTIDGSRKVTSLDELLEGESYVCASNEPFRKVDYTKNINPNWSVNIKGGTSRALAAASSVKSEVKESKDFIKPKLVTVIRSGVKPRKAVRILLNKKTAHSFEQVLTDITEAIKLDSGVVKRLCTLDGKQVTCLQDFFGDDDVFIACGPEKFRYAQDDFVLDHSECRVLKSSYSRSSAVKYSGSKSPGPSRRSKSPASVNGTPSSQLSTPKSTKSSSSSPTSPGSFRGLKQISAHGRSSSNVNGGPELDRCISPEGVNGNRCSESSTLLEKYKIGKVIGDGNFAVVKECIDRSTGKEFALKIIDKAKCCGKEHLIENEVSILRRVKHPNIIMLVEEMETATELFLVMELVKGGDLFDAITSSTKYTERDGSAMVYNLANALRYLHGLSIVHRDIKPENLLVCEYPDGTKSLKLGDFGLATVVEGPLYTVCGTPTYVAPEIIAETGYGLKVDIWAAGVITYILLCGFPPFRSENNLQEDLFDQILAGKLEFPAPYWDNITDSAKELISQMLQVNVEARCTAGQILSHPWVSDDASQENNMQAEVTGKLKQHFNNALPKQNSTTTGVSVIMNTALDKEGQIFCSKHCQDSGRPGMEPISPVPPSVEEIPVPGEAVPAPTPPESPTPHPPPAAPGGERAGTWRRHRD
# Sequence of Cyclin-dependent kinase-like 2 (Homo sapiens) (Q92772 whole entry): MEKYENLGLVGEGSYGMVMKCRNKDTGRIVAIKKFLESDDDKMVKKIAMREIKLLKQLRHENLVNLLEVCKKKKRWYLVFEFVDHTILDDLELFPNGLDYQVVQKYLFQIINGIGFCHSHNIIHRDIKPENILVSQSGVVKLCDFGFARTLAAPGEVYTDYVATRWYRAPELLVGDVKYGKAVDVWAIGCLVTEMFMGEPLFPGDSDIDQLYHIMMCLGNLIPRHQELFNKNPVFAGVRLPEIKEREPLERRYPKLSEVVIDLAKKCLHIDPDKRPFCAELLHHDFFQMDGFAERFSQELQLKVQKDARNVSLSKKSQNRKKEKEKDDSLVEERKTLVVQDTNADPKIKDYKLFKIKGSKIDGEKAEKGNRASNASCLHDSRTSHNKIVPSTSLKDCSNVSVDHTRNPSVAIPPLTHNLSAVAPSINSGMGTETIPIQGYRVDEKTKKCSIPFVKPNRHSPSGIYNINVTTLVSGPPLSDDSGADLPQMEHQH
smiles,measurement,setting,value
C[C@@H](c1ccccc1)n1nnc2cnc3ccc(-c4cnc5[nH]ccc5c4)cc3c21,Activity,[1],35%
same,Activity,[2],68%
same,Activity,Homo sapiens,102%
same,Activity,[3],91%
same,Activity,Mus musculus,-1%
same,Activity,[4],64%
same,Activity,[5],30%
same,Activity,[6],56%
same,Activity,[7],56%
same,Activity,[8],61%
same,Activity,[9],94%
same,Activity,[10],65%
same,Activity,[11],46%
same,Activity,[12],54%
same,Activity,[13],88%
same,Activity,[14],11%
same,Activity,[15],88%
same,Activity,[16],123%
same,Activity,[17],43%
same,Activity,[18],86%
same,Activity,[19],109%
same,Activity,[20],95%

# From ChEMBL document CHEMBL4334471, “Discovery of 1,8-disubstituted-[1,2,3]triazolo[4,5-c]quinoline derivatives as a new class of Hippo signaling pathway inhibitors” (Bioorg Med Chem Lett, 2019)
